In ChEMBL document CHEMBL1155060, “Discovery of brain penetrant, soluble, pyrazole amide EP1 receptor antagonists” (Bioorg Med Chem Lett, 2008):
Values after ≈ are worked out from the molar mass of the structure shown. Blank lines part the entries; values can stand above or below the molecule they belong to.

Experiments:
[1] = Solubility in water after 0.5 hrs; format: physicochemical
[2] = Half life in rat at 1 mg/kg, iv; format: ADME, organism-based; set-up: dose 1 mg/kg, route intravenous; settings: in vivo
[3] = Lipophilicity, log D of the compound; format: physicochemical; settings: octanol/water
Liver microsomes = experiment: Metabolic stability assessed as intrinsic clearance in rat liver microsomes; format: ADME, Microsome
[4] = Volume of distribution at steady state in rat at 1 mg/kg, iv; format: ADME, organism-based; set-up: dose 1 mg/kg, route intravenous; settings: in vivo, read-out: Vdss
[5] = Blood clearance in rat at 1 mg/kg, iv; format: ADME, organism-based; set-up: dose 1 mg/kg, route intravenous
[6] = Solubility in fed state simulated intestinal fluid after 0.5 hrs; format: physicochemical
[7] = Solubility in simulated gastric fluid after 0.5 hrs; format: physicochemical
[8] = Solubility in fasted state simulated intestinal fluid after 0.5 hrs; format: physicochemical
[9] = target: T1, Prostaglandin E2 receptor EP1 subtype (Homo sapiens, UniProt P34995); experiment: Displacement of [H3PGE2 from human EP1 receptor expressed in CHOK1 cells; format: cell-based, CHO-K1
T1 sequence (P34995 whole entry): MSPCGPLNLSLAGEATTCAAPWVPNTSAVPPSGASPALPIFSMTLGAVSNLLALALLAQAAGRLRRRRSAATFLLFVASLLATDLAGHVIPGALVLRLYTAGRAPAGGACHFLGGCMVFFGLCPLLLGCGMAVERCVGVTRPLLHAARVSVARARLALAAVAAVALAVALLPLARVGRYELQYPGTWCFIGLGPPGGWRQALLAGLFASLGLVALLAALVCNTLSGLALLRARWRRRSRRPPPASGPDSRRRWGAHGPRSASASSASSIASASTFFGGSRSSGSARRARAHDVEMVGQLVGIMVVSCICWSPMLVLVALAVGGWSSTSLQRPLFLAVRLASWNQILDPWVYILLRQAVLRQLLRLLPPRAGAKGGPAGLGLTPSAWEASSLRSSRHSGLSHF

[10] = target: T1, Prostaglandin E2 receptor EP1 subtype; experiment: Antagonist activity of human PGE2 receptor expressed in CHOK1 cells assessed as inhibition of intracellular calcium mobilisation by FLIPR assay; format: functional, cell-based, CHO-K1
[11] = Solubility in water after 1 hr; format: physicochemical
[12] = Solubility in fed state simulated intestinal fluid after 1 hr; format: physicochemical
[13] = Ratio of drug level in brain to blood in rat at 5 mg/kg, po after 3 hrs; format: ADME, organism-based; set-up: dose 5 mg/kg, route oral
[14] = Permeability across MDCK cells; format: ADME, cell-based, Canis lupus familiaris; settings: dog, read-out: permeability
[15] = Solubility in fasted state simulated intestinal fluid after 1 hr; format: physicochemical
[16] = Ratio of drug level in brain to blood in rat at 10 mg/kg, po after 1 hr; format: ADME, organism-based; set-up: dose 10 mg/kg, route oral
[17] = Solubility in water after 2 hrs; format: physicochemical
[18] = Ratio of drug level in brain to blood in rat at 3 mg/kg, po after 3 hrs; format: ADME, organism-based; set-up: dose 3 mg/kg, route oral
[19] = Solubility in fed state simulated intestinal fluid after 2 hrs; format: physicochemical
[20] = Solubility in simulated gastric fluid after 2 hrs; format: physicochemical
[21] = Drug level in rat blood at 10 mg/kg, po after 1 hr; format: ADME, organism-based; set-up: dose 10 mg/kg, route oral; settings: read-out: Drug uptake
[22] = Solubility in fasted state simulated intestinal fluid after 2 hrs; format: physicochemical
[23] = Drug level in rat blood at 3 mg/kg, po after 3 hrs; format: ADME, organism-based; set-up: dose 3 mg/kg, route oral; settings: read-out: Drug uptake
[24] = Solubility in simulated gastric fluid after 1 hr; format: physicochemical

- solubility at 0.5 h [1]: 2 µg/mL (≈ 4.63 µM)
- half-life [2]: 2.5 h
- logD [3]: > 3.7
- CL (Liver microsomes): 7.3 mL/min/g
- Vd [4]: 4.1 L/kg
- clearance [5]: 50 mL/min/kg
- solubility at 0.5 h [6]: 50 µg/mL (≈ 116 µM)
- solubility at 0.5 h [7]: 2 µg/mL (≈ 4.63 µM)
- solubility at 0.5 h [8]: 38 µg/mL (≈ 88 µM)
SMILES: Cc1cc(NC(=O)c2ccccc2)nn1Cc1cc(Cl)ccc1OCc1ccccc1

- logD [3]: 1
SMILES: Cc1cc(C(=O)O)nn1Cc1cc(Cl)ccc1OCc1ccccc1

- logD [3]: > 3.7
- CL (Liver microsomes): 12 mL/min/g
SMILES: Cc1cc(C(=O)Nc2ccccc2)nn1Cc1cc(Cl)ccc1OCc1ccccc1

- IC50 [9]: 12.6 nM
SMILES: Cc1cc(NC(=O)c2ccc(CO)cc2)nn1Cc1cc(Cl)ccc1OCC(C)C

- IC50 [9]: 10 nM
- Ki [10]: 79.4 nM
SMILES: Cc1cc(C(=O)Nc2ccc(CN3CCOCC3)cc2)nn1Cc1cc(Cl)ccc1OCc1ccccc1

- IC50 [9]: 12.6 nM
SMILES: Cc1cc(C(=O)Nc2ccc(CN3CCCC3)cc2)nn1Cc1cc(Cl)ccc1OCc1ccccc1

- IC50 [9]: 25.1 nM
SMILES: Cc1cc(NC(=O)c2ccccc2CO)nn1Cc1cc(Cl)ccc1OCC(C)C

- IC50 [9]: 12.6 nM
- solubility at 1 h [11]: 373 µg/mL
- solubility at 1 h [12]: 64 µg/mL
SMILES: Cc1cc(C(=O)Nc2ccc(CN3CCCCC3)cc2)nn1Cc1cc(Cl)ccc1OCc1ccccc1.Cl

- IC50 [9]: 12.6 nM
- Ki [10]: 126 nM
- half-life [2]: 3 h
- CL (Liver microsomes): 1.8 mL/min/g
- Vd [4]: 9.7 L/kg
- clearance [5]: 46 mL/min/kg
- Kp at 3 h [13]: 1.4
- solubility at 1 h [11]: 253 µg/mL
- Papp [14]: 31.8 ×10⁻⁶ cm/s
- solubility at 1 h [15]: 57 µg/mL
- solubility at 1 h [12]: 185 µg/mL
SMILES: CNCc1ccc(NC(=O)c2cc(C)n(Cc3cc(Cl)ccc3OCc3ccccc3)n2)cc1.Cl

- IC50 [9]: 12.6 nM
SMILES: CCNCc1ccc(NC(=O)c2cc(C)n(Cc3cc(Cl)ccc3OCc3ccccc3)n2)cc1

- IC50 [9]: 7.94 nM
SMILES: Cc1cc(C(=O)Nc2ccc(CN(C)C)cc2)nn1Cc1cc(Cl)ccc1OCc1ccccc1

- IC50 [9]: 631 nM
SMILES: Cc1cc(NC(=O)c2cccc(CN(C)C)c2)nn1Cc1cc(Cl)ccc1OCC(C)C

- IC50 [9]: 126 nM
SMILES: Cc1cc(NC(=O)c2cccc(CN3CCCC3)c2)nn1Cc1cc(Cl)ccc1OCC(C)C

- IC50 [9]: 100 nM
SMILES: Cc1cc(NC(=O)c2ccc(CN(C)C)cc2)nn1Cc1cc(Cl)ccc1OCC(C)C

- Kp at 1 h [16]: 1.2
- IC50 [9]: 50.1 nM
- solubility at 2 h [17]: > 1000 µg/mL
- Ki [10]: 158 nM
- half-life [2]: 1.4 h
- CL (Liver microsomes): 3.2 mL/min/g
- Vd [4]: 4.6 L/kg
- clearance [5]: 46 mL/min/kg
- Kp at 3 h [18]: 2
- solubility at 2 h [19]: 520 µg/mL
- Papp [14]: 36 ×10⁻⁶ cm/s
SMILES: Cc1cc(NC(=O)c2ccc(CN3CCCC3)cc2)nn1Cc1cc(Cl)ccc1OCC(C)C.Cl

- Kp at 1 h [16]: 0.8
- IC50 [9]: 100 nM
- solubility at 2 h [17]: 690 µg/mL
- Ki [10]: 158 nM
- half-life [2]: 2.8 h
- CL (Liver microsomes): 1.8 mL/min/g
- Vd [4]: 6.3 L/kg
- clearance [5]: 29 mL/min/kg
- solubility at 2 h [20]: 62 µg/mL
- Kp at 3 h [18]: 0.9
- concentration at 1 h [21]: 107 nM
- solubility at 2 h [22]: 14 µg/mL
- solubility at 2 h [19]: 154 µg/mL
- Papp [14]: 52.1 ×10⁻⁶ cm/s
- concentration at 3 h [23]: 114 nM
SMILES: CCNCc1ccc(C(=O)Nc2cc(C)n(Cc3cc(Cl)ccc3OCC(C)C)n2)cc1.Cl

- IC50 [9]: 501 nM
SMILES: Cc1cc(NC(=O)c2cccc(CN3CCCCC3)c2)nn1Cc1cc(Cl)ccc1OCC(C)C

- IC50 [9]: 7.94 nM
- Ki [10]: 79.4 nM
- solubility at 1 h [11]: 474 µg/mL
- solubility at 1 h [24]: 364 µg/mL
- solubility at 1 h [15]: 483 µg/mL
- solubility at 1 h [12]: 589 µg/mL
SMILES: CNCc1ccc(NC(=O)c2cc(C)n(Cc3cc(Cl)ccc3OCC(C)C)n2)cc1.Cl

- IC50 [9]: 5.01 nM
SMILES: Cc1cc(C(=O)Nc2ccc(CN(C)C)cc2)nn1Cc1cc(Cl)ccc1OCC(C)C

- IC50 [9]: 39.8 nM
- solubility at 2 h [17]: > 1000 µg/mL
- solubility at 2 h [20]: 30 µg/mL
- solubility at 2 h [22]: 90 µg/mL
- solubility at 2 h [19]: 240 µg/mL
SMILES: Cc1cc(NC(=O)c2ccc(CN3CCCCC3)cc2)nn1Cc1cc(Cl)ccc1OCC(C)C.Cl

- IC50 [9]: 100 nM
SMILES: Cc1cc(NC(=O)c2ccc3c(c2)CCN(C(C)C)C3)nn1Cc1cc(Cl)ccc1OCC(C)C

- IC50 [9]: 6.31 nM
- solubility at 1 h [11]: 811 µg/mL
- solubility at 1 h [24]: 662 µg/mL
- solubility at 1 h [15]: 164 µg/mL
- solubility at 1 h [12]: 315 µg/mL
SMILES: Cc1cc(C(=O)Nc2ccc(CN3CCCCC3)cc2)nn1Cc1cc(Cl)ccc1OCC(C)C.Cl

- IC50 [9]: 39.8 nM
- Ki [10]: 126 nM
SMILES: Cc1cc(NC(=O)c2ccc3c(c2)CCNC3)nn1Cc1cc(Cl)ccc1OCC(C)C

- IC50 [9]: 50.1 nM
SMILES: Cc1cc(NC(=O)c2ccc(C(C)NCC(C)C)cc2)nn1Cc1cc(Cl)ccc1OCC(C)C (configuration not stated)

- IC50 [9]: 50.1 nM
SMILES: Cc1cc(NC(=O)c2ccc(C(C)N3CCCC3)cc2)nn1Cc1cc(Cl)ccc1OCC(C)C (configuration not stated)

- IC50 [9]: 6.31 nM
SMILES: Cc1cc(C(=O)Nc2ccc(CN3CCCC3)cc2)nn1Cc1cc(Cl)ccc1OCC(C)C

- IC50 [9]: 100 nM
- Ki [10]: 100 nM
SMILES: Cc1cc(NC(=O)c2ccc(C3CCCN3)cc2)nn1Cc1cc(Cl)ccc1OCC(C)C (configuration not stated)

- IC50 [9]: 79.4 nM
SMILES: Cc1cc(NC(=O)c2ccc3c(c2)CCNCC3)nn1Cc1cc(Cl)ccc1OCC(C)C

- IC50 [9]: 50.1 nM
- Ki [10]: 50.1 nM
SMILES: CCN1CCc2ccc(C(=O)Nc3cc(C)n(Cc4cc(Cl)ccc4OCC(C)C)n3)cc2CC1

- IC50 [9]: 25.1 nM
- Ki [10]: 100 nM
SMILES: Cc1cc(C(=O)Nc2ccc(CNCCO)cc2)nn1Cc1cc(Cl)ccc1OCC(C)C

- IC50 [9]: 31.6 nM
SMILES: Cc1cc(C(=O)Nc2ccc(CO)cc2)nn1Cc1cc(Cl)ccc1OCC(C)C

- IC50 [9]: 501 nM
SMILES: CCNCc1cccc(C(=O)Nc2cc(C)n(Cc3cc(Cl)ccc3OCC(C)C)n2)c1

- IC50 [9]: 6.31 nM
- Ki [10]: 39.8 nM
SMILES: Cc1cc(C(=O)Nc2ccc(CO)cc2)nn1Cc1cc(Cl)ccc1OCc1ccccc1

- IC50 [9]: 251 nM
SMILES: Cc1cc(NC(=O)c2cccc(CN3CCOCC3)c2)nn1Cc1cc(Cl)ccc1OCC(C)C

- IC50 [9]: 50.1 nM
SMILES: Cc1cc(NC(=O)c2ccc(CN3CCOCC3)cc2)nn1Cc1cc(Cl)ccc1OCC(C)C

- IC50 [9]: 7.94 nM
- solubility at 1 h [11]: > 1000 µg/mL
- solubility at 1 h [24]: 905 µg/mL
- solubility at 1 h [15]: 812 µg/mL
- solubility at 1 h [12]: > 1000 µg/mL
SMILES: CCNCc1ccc(NC(=O)c2cc(C)n(Cc3cc(Cl)ccc3OCC(C)C)n2)cc1.Cl

- IC50 [9]: 15.8 nM
- Ki [10]: 79.4 nM
SMILES: Cc1cc(C(=O)Nc2ccc(CN(CCO)CCO)cc2)nn1Cc1cc(Cl)ccc1OCC(C)C

- IC50 [9]: 7.94 nM
SMILES: Cc1cc(C(=O)Nc2ccc(CN3CCOCC3)cc2)nn1Cc1cc(Cl)ccc1OCC(C)C
